Experimental data published in patent US10246426B2, “Triazole compounds as T-type calcium channel blockers” (IDORSIA PHARMACEUTICALS LTD, priority 2014, dated 2019).

target: Cav3.2 (Homo sapiens, UniProt O95180); test: Calcium flux FLIPR assay, HEK293 cells recombinantly expressing Cav3.2; format: cell-based; details: Cav3.2-channel, Ca2+ entry stimulated by 10 mM CaCl2
Procedure: In Vitro Methods—Measurement of Calcium Channel Flux by Means of FLIPR Assays.
HEK293 cells recombinantly expressing either voltage-dependent T-type calcium channel subunit […] (Cav3.2) or voltage-dependent L-type calcium channel subunit alpha-1C (Cav1.2) are assayed for calcium flux using the calcium indicator dye Fluo-4-AM (Molecular Devices) and FLIPR technology (Fluorometric Imaging Plate Reader, Molecular Devices) (Xie X, Van Deusen A L, Vitko I, Babu D A, Davies L A, Huynh N, Cheng H, Yang N, Barrett P Q, Perez-Reyes E. Validation of high throughput screening assays against three subtypes of Ca(v)3 T-type channels using molecular and pharmacologic approaches. Assay and Drug Development Technologies 2007, 5(2), 191-203). The HEK293 cells recombinantly expressing Cav3.2 are maintained in DMEM growth medium (Life Technologies) supplemented with 10% Fetal Bovine Serum (FBS), 100 U/ml penicilin (Life Technologies), 100 μg/ml streptomycin (Life Technologies) and 1 mg/ml G418 (Life Technologies). HEK293 cells recombinantly expressing Cav1.2 are maintained in DMEM growth medium (Life technologies) supplemented with 10% FBS, 0.1 mg/ml G418 (Life Technologies), 0.1 mg/ml hygromycin (Life Technologies) and 40 ug/ml zeocin (Life Technologies).
Cells are washed once with PBS, then dissociated in 0.25% trypsin/EDTA (Life Technologies) and seeded into poly-D-lysine coated 384-well black, clear bottom plates (BD Biosciences) at a density of 30,000 cells/well. The seeded plates are incubated overnight at 37° C.
Immediately prior to performing the assay, medium is removed and cells are treated for 1 hour at 37° C. with loading buffer containing HBSS 1× (137 mM NaCl; 5.4 mM KCl; 0.25 mM Na2HPO4; 1.3 mM CaCl2; 0.4 mM MgSO04; 0.5 mM MgCl2; 0.4 mM KH2PO4, pH 7.4), 0.375 g/L NaHCO3, 20 mM Hepes, supplemented with 3 μM Fluo-4-AM and 0.15% Pluronic (Life Technologies). The cells are then washed three times with assay buffer (HBSS 1×; 0.375 g/L NaHCO3; 20 mM Hepes; 1% FBS; pH 7.4) and allowed to rest in 50 μl of wash buffer for 30 minutes.
Stock solutions of test compounds are prepared to a concentration of 10 mM in DMSO. For the Cav3.2 assay, serial dilutions of the compounds are prepared in TEAC buffer (100 mM tetraethylammonium chloride; 20 mM Hepes; 2.5 mM CaCl2; 5 mM KCl; 1 mM MgCl2; 1% FBS; pH 7.2), for the Cav1.2 assay serial dilutions are prepared in assay buffer. […] The compounds are incubated with the cells for 3 minutes and Ca2+ entry is stimulated by adding either CaCl2 to a final concentration of 10 mM (Cav3.2 assay) or by adding KCl to a final concentration of 20 mM (Cav1.2 assay). The kinetics of fluorescence increase are recorded for every well and the area under the fluorescence trace for every compound concentration is used to generate inhibition curves using non-linear regression sigmoidal concentration-response curve analysis with in-house software. IC50 values are calculated and represent the compound concentration required to inhibit 50% of the signal that is obtained in the presence of vehicle instead of test compound.

Chain of Cav3.2 (O95180 whole entry, looked up): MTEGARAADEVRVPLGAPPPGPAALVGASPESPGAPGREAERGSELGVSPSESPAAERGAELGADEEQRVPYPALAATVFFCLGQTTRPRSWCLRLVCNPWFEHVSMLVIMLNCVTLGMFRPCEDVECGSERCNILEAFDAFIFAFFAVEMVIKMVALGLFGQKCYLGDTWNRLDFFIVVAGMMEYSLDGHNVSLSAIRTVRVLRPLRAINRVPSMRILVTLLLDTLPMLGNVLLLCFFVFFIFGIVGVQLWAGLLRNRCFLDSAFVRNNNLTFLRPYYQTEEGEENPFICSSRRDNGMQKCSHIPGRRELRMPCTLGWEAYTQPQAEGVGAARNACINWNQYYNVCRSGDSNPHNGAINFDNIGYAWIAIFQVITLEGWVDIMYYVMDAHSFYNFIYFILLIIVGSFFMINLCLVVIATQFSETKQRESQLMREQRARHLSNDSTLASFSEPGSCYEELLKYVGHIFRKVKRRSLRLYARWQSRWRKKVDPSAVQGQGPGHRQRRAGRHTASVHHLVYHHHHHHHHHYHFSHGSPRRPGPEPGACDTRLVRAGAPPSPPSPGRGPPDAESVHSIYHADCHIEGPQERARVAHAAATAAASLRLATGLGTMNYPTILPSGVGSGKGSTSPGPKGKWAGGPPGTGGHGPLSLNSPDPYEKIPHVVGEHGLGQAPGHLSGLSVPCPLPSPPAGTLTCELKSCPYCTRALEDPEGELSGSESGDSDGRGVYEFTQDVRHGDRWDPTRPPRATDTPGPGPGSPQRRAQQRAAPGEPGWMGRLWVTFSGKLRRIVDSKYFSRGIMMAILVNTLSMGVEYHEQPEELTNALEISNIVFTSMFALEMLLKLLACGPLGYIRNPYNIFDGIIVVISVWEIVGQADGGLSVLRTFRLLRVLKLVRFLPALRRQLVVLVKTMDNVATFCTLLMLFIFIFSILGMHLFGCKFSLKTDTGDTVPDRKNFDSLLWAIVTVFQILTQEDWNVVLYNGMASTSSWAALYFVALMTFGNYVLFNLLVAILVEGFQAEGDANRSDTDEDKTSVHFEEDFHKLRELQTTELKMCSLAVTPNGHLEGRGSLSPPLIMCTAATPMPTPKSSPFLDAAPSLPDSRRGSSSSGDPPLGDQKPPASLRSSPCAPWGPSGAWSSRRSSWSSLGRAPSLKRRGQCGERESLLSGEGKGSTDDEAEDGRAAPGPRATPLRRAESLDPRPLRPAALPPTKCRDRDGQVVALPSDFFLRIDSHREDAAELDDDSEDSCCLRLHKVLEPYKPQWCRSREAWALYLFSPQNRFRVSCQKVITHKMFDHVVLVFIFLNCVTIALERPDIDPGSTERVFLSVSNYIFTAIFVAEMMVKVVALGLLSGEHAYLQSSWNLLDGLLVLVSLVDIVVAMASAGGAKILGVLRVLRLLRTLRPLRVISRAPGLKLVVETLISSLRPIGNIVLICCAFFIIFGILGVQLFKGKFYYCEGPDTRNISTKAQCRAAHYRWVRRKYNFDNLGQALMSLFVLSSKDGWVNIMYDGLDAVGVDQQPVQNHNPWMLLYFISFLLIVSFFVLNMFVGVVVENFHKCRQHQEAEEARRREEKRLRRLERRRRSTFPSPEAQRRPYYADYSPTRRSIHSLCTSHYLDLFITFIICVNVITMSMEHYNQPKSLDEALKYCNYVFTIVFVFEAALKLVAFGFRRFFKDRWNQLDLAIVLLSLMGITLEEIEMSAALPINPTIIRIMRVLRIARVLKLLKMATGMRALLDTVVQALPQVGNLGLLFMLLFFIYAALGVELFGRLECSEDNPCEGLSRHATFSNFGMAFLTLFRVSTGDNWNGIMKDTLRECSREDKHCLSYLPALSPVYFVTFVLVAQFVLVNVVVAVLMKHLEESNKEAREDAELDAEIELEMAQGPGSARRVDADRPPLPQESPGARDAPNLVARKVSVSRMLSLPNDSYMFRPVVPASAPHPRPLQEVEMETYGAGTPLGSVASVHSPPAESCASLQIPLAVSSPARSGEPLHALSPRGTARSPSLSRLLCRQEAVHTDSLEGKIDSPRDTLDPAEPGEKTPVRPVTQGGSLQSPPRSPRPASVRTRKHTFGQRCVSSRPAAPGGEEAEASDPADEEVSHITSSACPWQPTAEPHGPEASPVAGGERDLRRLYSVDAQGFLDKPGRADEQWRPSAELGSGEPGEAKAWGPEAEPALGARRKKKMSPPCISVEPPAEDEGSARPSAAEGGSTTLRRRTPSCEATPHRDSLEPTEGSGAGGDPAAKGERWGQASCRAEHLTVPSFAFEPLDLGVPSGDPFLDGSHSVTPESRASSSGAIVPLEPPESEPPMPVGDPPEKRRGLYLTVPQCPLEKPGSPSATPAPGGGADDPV

| IC50 [nM] | SMILES |
| --- | --- |
| 280 | O=C(Cc1ccc2[nH]nc(C(F)(F)F)c2c1)Nc1cnn(Cc2ccc(F)c(F)c2)n1 [Example 39, N-[2-(3,4-Difluoro-benzyl)-2H-[1,2,3]triazol-4-yl]-2-(3-trifluoromethyl-1H-indazol-5-yl)-acetamide] |
| 35 | CCOc1ccc(Cn2ncc(NC(=O)Cc3ccc4c(ccn4C)c3)n2)cc1 [Example 40, N-[2-(4-Ethoxy-benzyl)-2H-[1,2,3]triazol-4-yl]-2-(1-methyl-1H-indol-5-yl)-acetamide] |
| 18 | CCOc1ccc(Cn2ncc(NC(=O)Cc3ccc(N4CCC(F)(F)C4)nc3)n2)cc1 [Example 41, 2-[6-(3,3-Difluoro-pyrrolidin-1-yl)-pyridin-3-yl]-N-[2-(4-ethoxy-benzyl)-2H-[1,2,3]triazol-4-yl]-acetamide] |
| 31 | CCOc1ccc(Cn2ncc(NC(=O)Cc3ccc(C4(C)COC4)cc3)n2)cc1 [Example 42, N-[2-(4-Ethoxy-benzyl)-2H-[1,2,3]triazol-4-yl]-2-[4-(3-methyl-oxetan-3-yl)-phenyl]-acetamide] |
| 45 | CCOc1ccc(Cn2ncc(NC(=O)Cc3ccc(C(C)(C)C)cc3)n2)cc1 [Example 43, 2-(4-tert-Butyl-phenyl)-N-[2-(4-ethoxy-benzyl)-2H-[1,2,3]triazol-4-yl]-acetamide] |
| 40 | CCOc1ccc(Cn2ncc(NC(=O)Cc3ccc(C(C)C)cc3)n2)cc1 [Example 44, N-[2-(4-Ethoxy-benzyl)-2H-[1,2,3]triazol-4-yl]-2-(4-isopropyl-phenyl)-acetamide] |
| 32 | CCOc1ccc(Cn2ncc(NC(=O)Cc3ccc(N4CCCC4)nc3)n2)cc1 [Example 45, N-[2-(4-Ethoxy-benzyl)-2H-[1,2,3]triazol-4-yl]-2-(6-pyrrolidin-1-yl-pyridin-3-yl)-acetamide] |
| 63 | CCOc1ccc(Cn2ncc(NC(=O)Cc3ccc4c(cnn4C)c3)n2)cc1 [Example 46, N-[2-(4-Ethoxy-benzyl)-2H-[1,2,3]triazol-4-yl]-2-(1-methyl-1H-indazol-5-yl)-acetamide] |
| 560 | CCN(CC)c1ccc(CC(=O)Nc2cnn(Cc3ccc(OC)c(OC)c3)n2)cn1 [Example 47, 2-(6-Diethylamino-pyridin-3-yl)-N-[2-(3,4-dimethoxy-benzyl)-2H-[1,2,3]triazol-4-yl]-acetamide] |
| 530 | COc1ccc(Cn2ncc(NC(=O)Cc3ccc(N4CCC(F)(F)C4)nc3)n2)cc1OC [Example 48, 2-[6-(3,3-Difluoro-pyrrolidin-1-yl)-pyridin-3-yl]-N-[2-(3,4-dimethoxy-benzyl)-2H-[1,2,3]triazol-4-yl]-acetamide] |
| 170 | COc1ccc(Cn2ncc(NC(=O)Cc3ccc(C(C)(C)C)cc3)n2)cc1OC [Example 49, 2-(4-tert-Butyl-phenyl)-N-[2-(3,4-dimethoxy-benzyl)-2H-[1,2,3]triazol-4-yl]-acetamide] |
| 160 | COc1ccc(Cn2ncc(NC(=O)Cc3ccc(C(C)C)cc3)n2)cc1OC [Example 50, N-[2-(3,4-Dimethoxy-benzyl)-2H-[1,2,3]triazol-4-yl]-2-(4-isopropyl-phenyl)-acetamide] |
| 600 | COc1ccc(Cn2ncc(NC(=O)Cc3ccc(N4CCCC4)nc3)n2)cc1OC [Example 51, N-[2-(3,4-Dimethoxy-benzyl)-2H-[1,2,3]triazol-4-yl]-2-(6-pyrrolidin-1-yl-pyridin-3-yl)-acetamide] |
| 12 | Cn1ccc2cc(CC(=O)Nc3cnn(Cc4ccc(F)cc4)n3)ccc21 [Example 52, N-[2-(4-Fluoro-benzyl)-2H-[1,2,3]triazol-4-yl]-2-(1-methyl-1H-indol-5-yl)-acetamide] |
| 35 | CC1(c2ccc(CC(=O)Nc3cnn(Cc4ccc(F)cc4)n3)cc2)COC1 [Example 53, N-[2-(4-Fluoro-benzyl)-2H-[1,2,3]triazol-4-yl]-2-[4-(3-methyl-oxetan-3-yl)-phenyl]-acetamide] |
| 26 | CC(C)(C)c1ccc(CC(=O)Nc2cnn(Cc3ccc(F)cc3)n2)cc1 [Example 54, 2-(4-tert-Butyl-phenyl)-N-[2-(4-fluoro-benzyl)-2H-[1,2,3]triazol-4-yl]-acetamide] |

| IC50 [nM] | SMILES |
| --- | --- |
| 50 | O=C(Cc1ccc(N2CCCC2)nc1)Nc1cnn(Cc2ccc(F)cc2)n1 [Example 55, N-[2-(4-Fluoro-benzyl)-2H-[1,2,3]triazol-4-yl]-2-(6-pyrrolidin-1-yl-pyridin-3-yl)-acetamide] |
| 38 | Cn1ncc2cc(CC(=O)Nc3cnn(Cc4ccc(F)cc4)n3)ccc21 [Example 56, N-[2-(4-Fluoro-benzyl)-2H-[1,2,3]triazol-4-yl]-2-(1-methyl-1H-indazol-5-yl)-acetamide] |
| 38 | COc1ccc(Cn2ncc(NC(=O)Cc3ccc4c(ccn4C)c3)n2)cc1 [Example 57, N-[2-(4-Methoxy-benzyl)-2H-[1,2,3]triazol-4-yl]-2-(1-methyl-1H-indol-5-yl)-acetamide] |
| 160 | CCN(CC)c1ccc(CC(=O)Nc2cnn(Cc3ccc(OC)cc3)n2)cn1 [Example 58, 2-(6-Diethylamino-pyridin-3-yl)-N-[2-(4-methoxy-benzyl)-2H-[1,2,3]triazol-4-yl]-acetamide] |
| 60 | COc1ccc(Cn2ncc(NC(=O)Cc3ccc(N4CCC(F)(F)C4)nc3)n2)cc1 [Example 59] |
| 120 | COc1ccc(Cn2ncc(NC(=O)Cc3ccc(C4(C)COC4)cc3)n2)cc1 [Example 60, N-[2-(4-Methoxy-benzyl)-2H-[1,2,3]triazol-4-yl]-2-[4-(3-methyl-oxetan-3-yl)-phenyl]-acetamide] |
| 44 | COc1ccc(Cn2ncc(NC(=O)Cc3ccc(C(C)(C)C)cc3)n2)cc1 [Example 61, 2-(4-tert-Butyl-phenyl)-N-[2-(4-methoxy-benzyl)-2H-[1,2,3]triazol-4-yl]-acetamide] |
| 120 | COc1ccc(Cn2ncc(NC(=O)Cc3ccc(N4CCCC4)nc3)n2)cc1 [Example 62, N-[2-(4-Methoxy-benzyl)-2H-[1,2,3]triazol-4-yl]-2-(6-pyrrolidin-1-yl-pyridin-3-yl)-acetamide] |
| 160 | COc1ccc(Cn2ncc(NC(=O)Cc3ccc4c(cnn4C)c3)n2)cc1 [Example 63, N-[2-(4-Methoxy-benzyl)-2H-[1,2,3]triazol-4-yl]-2-(1-methyl-1H-indazol-5-yl)-acetamide] |
| 30 | Cc1ccc(Cn2ncc(NC(=O)Cc3ccc4c(ccn4C)c3)n2)cc1 [Example 64, N-[2-(4-Methyl-benzyl)-2H-[1,2,3]triazol-4-yl]-2-(1-methyl-1H-indol-5-yl)-acetamide] |
| 23 | Cc1ccc(Cn2ncc(NC(=O)Cc3ccc(N4CCC(F)(F)C4)nc3)n2)cc1 [Example 65, 2-[6-(3,3-Difluoro-pyrrolidin-1-yl)-pyridin-3-yl]-N-[2-(4-methyl-benzyl)-2H-[1,2,3]triazol-4-yl]-acetamide] |
| 70 | Cc1ccc(Cn2ncc(NC(=O)Cc3ccc(C(C)(C)C)cc3)n2)cc1 [Example 66, 2-(4-tert-Butyl-phenyl)-N-[2-(4-methyl-benzyl)-2H-[1,2,3]triazol-4-yl]-acetamide] |
| 66 | Cc1ccc(Cn2ncc(NC(=O)Cc3ccc(C4(C)COC4)cc3)n2)cc1 [Example 67, N-[2-(4-Methyl-benzyl)-2H-[1,2,3]triazol-4-yl]-2-[4-(3-methyl-oxetan-3-yl)-phenyl]-acetamide] |
| 45 | Cc1ccc(Cn2ncc(NC(=O)Cc3ccc(N4CCCC4)nc3)n2)cc1 [Example 68, N-[2-(4-Methyl-benzyl)-2H-[1,2,3]triazol-4-yl]-2-(6-pyrrolidin-1-yl-pyridin-3-yl)-acetamide] |
| 20 | Cc1ccc(Cn2ncc(NC(=O)Cc3ccc4c(cnn4C)c3)n2)cc1 [Example 69, N-[2-(4-Methyl-benzyl)-2H-[1,2,3]triazol-4-yl]-2-(1-methyl-1H-indazol-5-yl)-acetamide] |
| 18 | Cn1ccc2cc(CC(=O)Nc3cnn(Cc4ccc(C#N)c(F)c4)n3)ccc21 [Example 70, N-[2-(4-Cyano-3-fluoro-benzyl)-2H-[1,2,3]triazol-4-yl]-2-(1-methyl-1H-indol-5-yl)-acetamide] |
